Assay results from patent US7015237B2, “Pyridine matrix metalloproteinase inhibitors” (Warner-Lambert Company, priority 2001, dated 2006).

biological target: MMP-13 (catalytic domain of collagenase 3) (Homo sapiens, UniProt P45452); experiment: Thiopeptolide substrate hydrolysis assay, MMP-13; format: biochemical; settings: catalytic domain of collagenase 3; Table 1; read-out: MMP-13 IC50
From the text: The assays used to evaluate the biological activity of the invention compounds are well known and routinely used by those skilled in the study of MMP inhibitors and their use to treat clinical conditions.
The assays measure the amount by which a test compound reduces the hydrolysis of a thiopeptolide substrate catalyzed by a matrix metalloproteinase enzyme. Such assays are described in detail by Ye et al., in Biochemistry, 1992; 31(45):11231–11235, which is incorporated herein by reference.
Thiopeptolide substrates show virtually no decomposition or hydrolysis at or below neutral pH in the absence of a matrix metalloproteinase enzyme. A typical thiopeptolide substrate commonly utilized for assays is Ac-Pro-Leu-Gly-thioester-Leu-Leu-Gly-OEt. A 100-μL assay mixture will contain 50 mM of N-2-hydroxyethylpiperazine-N′-2-ethanesulfonic acid buffer (“HEPES”) at pH 7.0, 10 mM CaCl2, 100 μM thiopeptolide substrate, and 1 mM 5,5′-dithio-bis-(2-nitro-benzoic acid) (DTNB). The thiopeptolide substrate concentration may be varied from, for example, 10 to 800 μM to obtain Km and Kcat values. The change in absorbance at 405 nm is monitored on a Thermo Max microplate reader (Molecular Devices, Menlo Park, Calif.) at room temperature (22° C.). The calculation of the amount of hydrolysis of the thiopeptolide substrate is based on E412=13600 M^−1 cm^−1 for the DTNB-derived product 3-carboxy-4-nitrothiophenoxide. Assays are carried out with and without matrix metalloproteinase inhibitor compounds, and the amount of hydrolysis is compared for a determination of inhibitory activity of the test compounds.
In the tables, MMP-1 refers to full-length interstitial collagenase; MMP-3 refers to the catalytic domain of stromelysin-1; MMP-13 refers to the catalytic domain of collagenase 3. Test compounds were evaluated at various concentrations to determine their respective IC50 values.

Row | IC50 [µM] | Molecule
1 | 0.035 | COc1cccc(CNC(=O)c2ccnc(C(=O)NCc3cccc(OC)c3)c2)c1 [Example 1, Pyridine-2,4-dicarboxylic acid bis-(3-methoxy-benzylaride)]
2 | 0.23 | COc1ncc(C(=O)NCc2ccc3c(c2)OCO3)cc1C(=O)NCc1ccc2c(c1)OCO2 [Example 4, 2-Methoxy-pyridine-3,5-dicarboxylic acid bis-[(1,3-benzodioxol-5-ylmethyl)-amide]]
3 | 0.014 | O=C(NCc1ccc2c(c1)OCO2)c1ccnc(C(=O)NCc2ccc3c(c2)OCO3)c1 [Example 8, Pyridine-2,4-dicarboxylic acid bis-[(1,3-benzodioxol-5-ylmethyl)-amide]]

same assay, conditions: catalytic domain, human; combinatorial compounds of Example 14; Table 2; read-out: MMP-13 IC50 CD/Human

Row | IC50 [µM] | Molecule
4 | 0.038 | COc1cccc(CNC(=O)c2ccnc(C(=O)NCc3cccc(OC)c3)c2)c1 [Example 14.1, Pyridine-2,4-dicarboxylic acid bis-(3-methoxy-benzylamide)]
5 | 0.033 | O=C(NCc1ccc2c(c1)OCO2)c1ccnc(C(=O)NCc2ccc3c(c2)OCO3)c1 [Example 14.2, Pyridine-2,4-dicarboxylic acid bis-[(1,3-benzodioxol-5-ylmethyl)-amide]]
6 | 0.3 | O=C(NCc1ccc(Cl)cc1)c1ccnc(C(=O)NCc2ccc(Cl)cc2)c1 [Example 14.4, Pyridine-2,4-dicarboxylic acid bis-(4-chloro-benzylamide)]
7 | 30 | O=C(NCc1cccc2ccccc12)c1ccnc(C(=O)NCc2cccc3ccccc23)c1 [Example 14.6, Pyridine-2,4-dicarboxylic acid bis-[(naphthalen-1-ylmethyl)-amide]]
8 | 0.13 | COc1ccc(CNC(=O)c2ccnc(C(=O)NCc3ccc(OC)cc3)c2)cc1 [Example 14.8, Pyridine-2,4-dicarboxylic acid bis-(4-methoxy-benzylamide)]
9 | 0.18 | O=C(NCc1cccc(F)c1)c1ccnc(C(=O)NCc2cccc(F)c2)c1 [Example 14.9, Pyridine-2,4-dicarboxylic acid bis-(3-fluoro-benzylamide)]
10 | 30 | O=C(NCCc1ccccc1Oc1ccccc1)c1ccnc(C(=O)NCCc2ccccc2Oc2ccccc2)c1 [Example 14.12, Pyridine-2,4-dicarboxylic acid bis-{[2-(2-phenoxy-phenyl)-ethyl]-amide}]
11 | 30 | CCc1ccc(CCNC(=O)c2ccnc(C(=O)NCCc3ccc(CC)cc3)c2)cc1 [Example 14.19, Pyridine-2,4-dicarboxylic acid bis-{[2-(4-ethyl-phenyl)-ethyl]-amide}]
12 | 30 | O=C(NC(Cc1ccccc1)c1ccccc1)c1ccnc(C(=O)NC(Cc2ccccc2)c2ccccc2)c1 (stereo not drawn) [Example 14.21, Pyridine-2,4-dicarboxylic acid bis-[(1,2-diphenyl-ethyl)-amide]]
13 | 30 | O=C(NCc1ccc(Cl)cc1Cl)c1ccnc(C(=O)NCc2ccc(Cl)cc2Cl)c1 [Example 14.22, Pyridine-2,4-dicarboxylic acid bis-(2,4-dichloro-benzylamide)]
14 | 30 | O=C(NCc1ccccc1-c1ccccc1)c1ccnc(C(=O)NCc2ccccc2-c2ccccc2)c1 [Example 14.23, Pyridine-2,4-dicarboxylic acid bis-[(biphenyl-2-ylmethyl)-amide]]
15 | 0.074 | O=C(NCc1cccc(Cl)c1)c1ccnc(C(=O)NCc2cccc(Cl)c2)c1 [Example 14.25, Pyridine-2,4-dicarboxylic acid bis-(3-chloro-benzylamide)]
16 | 2 | O=C(NCc1ccncc1)c1ccnc(C(=O)NCc2ccncc2)c1 [Example 14.32, Pyridine-2,4-dicarboxylic acid bis-[(pyridin-4-ylmethyl)-amide]]
17 | 0.31 | O=C(NCc1cccc(C(F)(F)F)c1)c1ccnc(C(=O)NCc2cccc(C(F)(F)F)c2)c1 [Example 14.35, Pyridine-2,4-dicarboxylic acid bis-(3-trifluoromethyl-benzylamide)]
18 | 0.26 | O=C(NCc1cccc(OC(F)F)c1)c1ccnc(C(=O)NCc2cccc(OC(F)F)c2)c1 [Example 14.37, Pyridine-2,4-dicarboxylic acid bis-(3-difluoromethoxy-benzylamide)]
19 | 0.28 | O=C(NCc1ccc(F)c(C(F)(F)F)c1)c1ccnc(C(=O)NCc2ccc(F)c(C(F)(F)F)c2)c1 [Example 14.39, Pyridine-2,4-dicarboxylic acid bis-(4-fluoro-3-trifluoromethyl-benzylamide)]

Row | IC50 [µM] | Molecule
20 | 0.04 | O=C(NCc1ccc(F)c(Cl)c1)c1ccnc(C(=O)NCc2ccc(F)c(Cl)c2)c1 [Example 14.42, Pyridine-2,4-dicarboxylic acid bis-(3-chloro-4-fluoro-benzylamide)]
21 | 70 | Nc1ccc(CNC(=O)c2ccnc(C(=O)NCc3ccc(N)cc3)c2)cc1 [Example 14.44, Pyridine-2,4-dicarboxylic acid bis-(4-amino-benzylamide)]
22 | 30 | COc1ccc(C(NC(=O)c2ccnc(C(=O)NC(c3ccc(OC)cc3)c3ccc(OC)cc3)c2)c2ccc(OC)cc2)cc1 [Example 14.46, Pyridine-2,4-dicarboxylic acid bis-{[bis-(4-methoxy-phenyl)-methyl]-amide}]
23 | 30 | O=C(NCCC(c1ccccc1)c1ccccc1)c1ccnc(C(=O)NCCC(c2ccccc2)c2ccccc2)c1 [Example 14.47, Pyridine-2,4-dicarboxylic acid bis-[(3,3-diphenyl-propyl)-amide]]
24 | 84 | O=C(NCc1ccccc1F)c1ccnc(C(=O)NCc2ccccc2F)c1 [Example 14.50, Pyridine-2,4-dicarboxylic acid bis-(2-fluoro-benzylamide)]
25 | 1.5 | Cc1ccc(CNC(=O)c2ccnc(C(=O)NCc3ccc(C)cc3)c2)cc1 [Example 14.54, Pyridine-2,4-dicarboxylic acid bis-(4-methyl-benzylamide)]
26 | 34 | O=C(NCc1cccnc1)c1ccnc(C(=O)NCc2cccnc2)c1 [Example 14.57, Pyridine-2,4-dicarboxylic acid bis-[(pyridin-3-ylmethyl)-amide]]
27 | 13 | O=C(NCc1cccs1)c1ccnc(C(=O)NCc2cccs2)c1 [Example 14.60, Pyridine-2,4-dicarboxylic acid bis-[(thiophen-2-ylmethyl)-amide]]
28 | 30 | O=C(NCc1ccc(C(F)(F)F)cc1)c1ccnc(C(=O)NCc2ccc(C(F)(F)F)cc2)c1 [Example 14.61, Pyridine-2,4-dicarboxylic acid bis-(4-trifluoromethyl-benzylamide)]
29 | 88 | Cc1ccc(CNC(=O)c2ccnc(C(=O)NCc3ccc(C)o3)c2)o1 [Example 14.62, Pyridine-2,4-dicarboxylic acid bis-[(5-methyl-furan-2-ylmethyl)-amide]]
30 | 30 | CC(NC(=O)c1ccnc(C(=O)NC(C)c2cccc3ccccc23)c1)c1cccc2ccccc12 (stereo not drawn) [Example 14.65, Pyridine-2,4-dicarboxylic acid bis-[(1-naphthalen-1-yl-ethyl)-amide]]
31 | 30 | O=C(NCCc1ccc(O)cc1)c1ccnc(C(=O)NCCc2ccc(O)cc2)c1 [Example 14.66, Pyridine-2,4-dicarboxylic acid bis-{[2-(4-hydroxy-phenyl)-ethyl]-amide}]
32 | 4 | O=C(NCc1cccc(OC(F)(F)F)c1)c1ccnc(C(=O)NCc2cccc(OC(F)(F)F)c2)c1 [Example 14.67, Pyridine-2,4-dicarboxylic acid bis-(3-trifluoromethoxy-benzylamide)]
33 | 30 | COc1ccc2[nH]cc(CCNC(=O)c3ccnc(C(=O)NCCc4c[nH]c5ccc(OC)cc45)c3)c2c1 [Example 14.78, Pyridine-2,4-dicarboxylic acid bis-{[2-(5-methoxy-1H-indol-3-yl)-ethyl]-amide}]
34 | 30 | O=C(NCCc1c[nH]c2ccccc12)c1ccnc(C(=O)NCCc2c[nH]c3ccccc23)c1 [Example 14.79, Pyridine-2,4-dicarboxylic acid bis-{[2-(1H-indol-3-yl)-ethyl]-amide}]
35 | 30 | O=C(NCc1cc(Cl)cc(Cl)c1)c1ccnc(C(=O)NCc2cc(Cl)cc(Cl)c2)c1 [Example 14.80, Pyridine-2,4-dicarboxylic acid bis-(3,5-dichloro-benzylamide)]

Row | Molecule | IC50 [µM]
36 | Pyridine-2,4-dicarboxylic acid bis-benzylamide [Example 14.5] | 0.29
37 | Pyridine-2,4-dicarboxylic acid bis-indan-1-ylamide [Example 14.73] | 0.44

system: not given; experiment: not given; settings: not given

Row | melting point [°C] | Molecule
38 | 224 to 225 | O=C(NCc1ccc(Cl)cc1)c1cncc(C(=O)NCc2ccc(Cl)cc2)c1 [Example 2, Pyridine-3,5-dicarboxylic acid bis-(4-chloro-benzylamide)]
39 | 113 to 114 | O=C(OCc1ccc2c(c1)OCO2)c1cncc(C(=O)OCc2ccc3c(c2)OCO3)c1 [Example 5, Pyridine-3,5-dicarboxylic acid bis-(1,3-benzodioxol-5-ylmethyl) ester]
